13 compounds from ChEMBL document CHEMBL2375269, “Triazolothiadiazoles and triazolothiadiazines--biologically attractive scaffolds” (Eur J Med Chem, 2013) can be followed below.

Assay [1] can be described thus: Inhibition of acetylcholine esterase (unknown origin) using acetylthiocholine as substrate incubated for 15 mins prior to substrate addition measured after 5 mins by spectrophotometry. Set-up: species or system Homo sapiens.
For assay [2], the system named is Radical scavenging activity. Nature of the assay: Antioxidant activity of the compound assessed as DPPH radical scavenging activity after 30 mins by spectrophotometry. The assay is classed as functional. Background: Loss of DPPH colour is used to gauge radical scavenging.
The next assay concerns Bacillus subtilis. Nature of the assay: Antibacterial activity against Bacillus subtilis after 24 hrs by serial tube dilution method. In kind it is functional.
The test system of a further assay is Staphylococcus aureus. Nature of the assay: Antibacterial activity against Staphylococcus aureus after 24 hrs by serial tube dilution method. In kind it is functional.
The test system of a further assay is Escherichia coli. Kind of assay: Antibacterial activity against Escherichia coli after 24 hrs by serial tube dilution method. The assay is classed as functional.
The test system of the next assay is Shigella flexneri. Kind of assay: Antibacterial activity against Shigella flexneri after 24 hrs by serial tube dilution method. The assay is classed as functional.
The nature of assay [3]: Inhibition of urease (unknown origin) assessed as ammonia synthesis after 30 mins by microplate reader analysis. On the set-up: species or system Homo sapiens.
In assay [4] the target is Intestinal-type alkaline phosphatase (Bos taurus, UniProt P19111). Nature of the assay: Inhibition of calf intestinal alkaline phosphatase using p-NPP as substrate incubated for 10 mins prior to substrate addition measured after 30 mins by spectrophotometry.

In brackets after ≈: the same amount, converted by molar mass.

Intestinal-type alkaline phosphatase, sequence (P19111 whole entry): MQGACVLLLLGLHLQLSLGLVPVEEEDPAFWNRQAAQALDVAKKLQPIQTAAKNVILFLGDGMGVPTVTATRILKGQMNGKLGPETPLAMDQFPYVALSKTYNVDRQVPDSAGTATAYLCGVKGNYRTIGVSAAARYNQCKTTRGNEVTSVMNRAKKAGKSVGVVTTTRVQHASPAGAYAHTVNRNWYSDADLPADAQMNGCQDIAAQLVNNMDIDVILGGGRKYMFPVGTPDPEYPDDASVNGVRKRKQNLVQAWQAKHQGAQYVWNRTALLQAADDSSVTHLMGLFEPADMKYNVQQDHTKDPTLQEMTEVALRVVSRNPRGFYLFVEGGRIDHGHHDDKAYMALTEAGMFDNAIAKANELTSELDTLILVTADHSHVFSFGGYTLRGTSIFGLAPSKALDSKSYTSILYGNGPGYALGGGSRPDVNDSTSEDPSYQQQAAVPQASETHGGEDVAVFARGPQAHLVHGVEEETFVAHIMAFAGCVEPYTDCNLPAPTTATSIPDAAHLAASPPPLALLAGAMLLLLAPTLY

Regarding `Fc1ccccc1Cc1nnc2sc(-c3ccoc3)nn12`, the IC50 (as a rule, the point on the concentration scale where inhibition reaches its midpoint) in assay [1] turned out to be 1780 nM.
Consider `Fc1cccc(Cc2nnc3sc(-c4ccoc4)nn23)c1`, for which the results for the IC50 in assay [1] and in assay [2] were 1780 nM and 31500 nM, respectively.
Consider `Brc1cccc(-c2nnc3sc(-c4ccoc4)nn23)c1`, for which the midpoint of inhibition in assay [1], the IC50, lay at 344 nM.
Consider `COc1cccc(Cc2nnc3sc(-c4ccc(Cl)cc4)nn23)c1`, for which the IC50 in assay [2] amounted to 9040 nM.
In the case of `Fc1cnc(-c2nn3c(-c4ccccc4Cl)nnc3s2)c(F)c1`, the MIC against Bacillus subtilis, with Staphylococcus aureus, against Escherichia coli and with Shigella flexneri was 0.156 µg/mL (≈ 0.446 µM) each time.
The compound `Clc1ccccc1-c1nnc2sc(-c3ccoc3)nn12` returned an IC50 in assay [1] of 1780 nM.
Same read-out and setting: under `Fc1ccc(Cc2nnc3sc(-c4ccoc4)nn23)cc1` stands 1780 nM; under `Clc1ccc(-c2nnc3sc(-c4ccoc4)nn23)cc1`, 1780 nM.
For `COc1ccc(-c2nnc3sc(-c4ccoc4)nn23)cc1`, in assay [3], the IC50 was determined as 764 nM and the Ki (usually a measure of affinity in units of concentration, obtained from inhibition or displacement) came to 450 nM. For the same compound, the IC50 in assay [1] worked out at 1780 nM.
Take `COc1ccccc1-c1nnc2sc(-c3ccoc3)nn12`: the IC50 in assay [1] is 1780 nM.
On to `CCCOC(=O)c1cc(O)c(O)c(O)c1` [PROPYL GALLATE], for which the IC50 in assay [2] was found to be 40800 nM.
For `Brc1ccc(-c2nnc3sc(-c4ccoc4)nn23)cc1`, the IC50 is 61 nM in assay [4] and 1780 nM in assay [1].
In turn, `COc1cccc(-c2nnc3sc(-c4ccoc4)nn23)c1` gave an IC50 in assay [1] of 1780 nM.
